Data: patent US11312705B2, “Heteroaryl[4,3-C]pyrimidine-5-amine derivative, preparation method therefor, and medical uses thereof” (Jiangsu Hengrui Medicine Co., Ltd., priority 2017, dated 2022)

Biological target: adenosine A3 receptor (A3R) (Homo sapiens (Human), UniProt P0DMS8)
Test: Inhibition of adenosine A3 receptor cAMP signaling pathway (HTRF cAMP, CHO-K1/A3R cells)
Type: cell-based
Details: Table 2; for IC50: CHO-K1/A3R cells, forskolin 10 μM, 2Cl-IB-MECA 5 nM, cAMP HTRF
Description: Test Example 1. Determination of the inhibition activity of the compounds of the present invention on the adenosine A2a receptor (A2aR) cAMP signaling pathway, the adenosine A2b receptor (A2bR) cAMP signaling pathway, the adenosine A1 receptor (A1R) cAMP signaling pathway and the adenosine A3 receptor (A3R) cAMP signaling pathway.
The inhibition activity of the compounds of the present invention on the adenosine A2a receptor cAMP signaling pathway, the adenosine A2b receptor cAMP signaling pathway, the adenosine A1 receptor cAMP signaling pathway and the adenosine A3 receptor cAMP signaling pathway was determined by the following method. The experimental method is briefly described as follows:
2.3 Adenosine A3 receptor
CHO-K1/A3R cells were cultured in DMEM/F12 medium containing 10% fetal bovine serum and 10 μg/ml puromycin. The cells were digested with the cell separation buffer during the experiment. The cells were resuspended in the balanced salt buffer containing 20 mM HEPES and 0.1% bovine serum albumin and counted, and the cell density was adjusted to 5×10^5 cells/ml. In the 384-well plate, each well was added with 12.5 μl of cell suspension, and 6.25 μl of test compound (4× concentration) formulated with the balanced salt buffer containing 20 mM HEPES, 0.1% bovine serum albumin, 54 μM rolipram and 2.7 U/ml adenosine deaminase, and the plate was incubated at room temperature for 30 minutes. Each well was then added with 6.25 μl of forskolin and 2Cl-IB-MECA (4× concentration) formulated with the balanced salt buffer containing 20 mM HEPES, 0.1% bovine serum albumin, 54 μM rolipram and 2.7 U/ml adenosine deaminase, and the plate was incubated at room temperature for 30 minutes. The final concentrations of the compounds were: 100000, 10000, 1000, 100, 10, 1, 0.1 and 0 nM. The final concentration of forskolin was 10 μM. The final concentration of 2Cl-IB-MECA was 5 nM. Intracellular cAMP concentration was detected with the cAMP dynamic 2 kit. cAMP-d2 and Anti-cAMP-Eu-Cryptate were diluted respectively with the cAMP lysis buffer at a ratio of 1:4. Each well was added with 12.5 μl of diluted cAMP-d2, followed by addition of 12.5 μl of diluted Anti-cAMP-Eu-Cryptate, and the plate was incubated at room temperature in the dark for 1 hour. The HTRF signal values were read by the PHERAstar multi-function microplate reader.

Sequence of adenosine A3 receptor (A3R) (P0DMS8 whole entry): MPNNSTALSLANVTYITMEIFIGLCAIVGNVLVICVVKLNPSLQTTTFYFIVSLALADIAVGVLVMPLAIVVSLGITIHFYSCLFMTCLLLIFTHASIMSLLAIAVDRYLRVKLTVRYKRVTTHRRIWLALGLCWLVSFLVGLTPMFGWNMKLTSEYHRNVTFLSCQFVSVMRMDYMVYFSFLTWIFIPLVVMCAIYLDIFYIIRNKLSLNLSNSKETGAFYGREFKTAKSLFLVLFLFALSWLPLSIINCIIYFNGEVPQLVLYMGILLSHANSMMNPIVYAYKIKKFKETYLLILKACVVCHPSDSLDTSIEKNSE

Cc1cc(-c2c(-c3ccc(F)cc3F)nc(N)n3cnnc23)cc(C(F)(F)F)n1 [Example 18, 7-(2,4-Difluorophenyl)-8-(2-methyl-6-(trifluoromethyl)pyridin-4-yl)-[1,2,4]triazolo[4,3-c]pyrimidin-5-amine]
IC50 ratio (A3R/A2aR): >2.5 × 10^3
IC50: > 10000 nM

Cc1cc(-c2c(-c3ccc(F)cc3F)nc(N)n3cnnc23)cc(C(F)F)n1 [Example 20, 8-(2-(Difluoromethyl)-6-methylpyridin-4-yl)-7-(2,4-difluorophenyl)-[1,2,4]triazolo[4,3-c]pyrimidin-5-amine]
IC50 ratio (A3R/A2aR): >4.3 × 10^3
IC50: > 10000 nM
